Laboratory results taken from article PMC8068801, “Novel Benzenesulfonate Scaffolds with a High Anticancer Activity and G2/M Cell Cycle Arrest” (Cancers, 2021).
Values belong to the compound of their own block, whether it stands above or below them.

Assays:
[1] = test system: K562 cells; assay: MTS cytotoxicity assay, K562; format: cell-based, human; conditions: for IC50: Homo sapiens, K562, 72 h incubation, MTS; for Selectivity index, K562: normal fibroblasts NHDF vs K562
From the text: (§1) M. Rusin from the Maria Sklodowska-Curie Memorial Cancer Centre and Institute of Oncology in Gliwice, Poland. […] G. Kramer-Marek from the Institute of Cancer Research in London, United Kingdom. The human suspension chronic myelogenous leukemia cell line K562 and pancreas ductal adenocarcinoma cell line PANC-1 were purchased from Sigma-Aldrich (St. Louis, MO, USA), while the normal human dermal fibroblasts cell line NHDF were purchased from PromoCell. […] Each medium contained a combination of two antibiotics: penicillin and streptomycin (1% v/v; Gibco). All of these cell lines were grown under standard conditions at 37 °C with a 5% CO2 humidified atmosphere. Moreover, all of the cell lines were routinely tested for mycoplasma using the PCR technique with specific Mycoplasma primers to confirm that there was no contamination.
(§2) The assay was performed following a 72 h incubation with the various concentrations of the tested compounds. Then, 100 µL DMEM without phenol red with 20 µL of the CellTiter 96®AQueous One Solution-MTS (Promega, Promega, WI, USA) was added to each well and incubated for 1 h or 3 h (PANC-1) at 37 °C. The optical densities of the samples were measured at 490 nm using a multi-plate reader (Synergy 4, BioTek, Winooski, VT, USA). […] Each individual compound was tested in triplicate in a single experiment with each experiment being performed three or four times.

[2] = test system: HCT 116 p53^−/− cells; assay: MTS cytotoxicity assay, HCT 116 p53-/-; format: cell-based, human; conditions: for IC50: Homo sapiens, HCT 116 p53^−/−, 72 h incubation, MTS; for Selectivity index, HCT 116 p53 −/−: NHDF vs HCT 116 p53 −/−
From the text: as §1, §2

[3] = test system: A549 cells; assay: MTS cytotoxicity assay, A549; format: cell-based, human; conditions: for IC50: Homo sapiens, A549, 72 h, A549, 72 h incubation, MTS; for Selectivity index, A549: NHDF vs A549
From the text: as §1, §2

[4] = test system: PANC-1 cells; assay: MTS cytotoxicity assay, PANC-1; format: cell-based, human; conditions: for IC50: Homo sapiens, PANC-1, 72 h incubation, MTS; for Selectivity index, PANC-1: NHDF vs PANC-1
From the text: as §1, §2

[5] = target: T1, Fyn A (Homo sapiens, UniProt P06241); assay: Tyrosine kinase assay (Kinase Selectivity TK-2, ADP-Glo); format: biochemical; conditions: read-out: Inhibitory Effect of the Tyrosine Kinase Activity, Fyn A
T1 construct: purchased Promega
T1 sequence (P06241 whole entry): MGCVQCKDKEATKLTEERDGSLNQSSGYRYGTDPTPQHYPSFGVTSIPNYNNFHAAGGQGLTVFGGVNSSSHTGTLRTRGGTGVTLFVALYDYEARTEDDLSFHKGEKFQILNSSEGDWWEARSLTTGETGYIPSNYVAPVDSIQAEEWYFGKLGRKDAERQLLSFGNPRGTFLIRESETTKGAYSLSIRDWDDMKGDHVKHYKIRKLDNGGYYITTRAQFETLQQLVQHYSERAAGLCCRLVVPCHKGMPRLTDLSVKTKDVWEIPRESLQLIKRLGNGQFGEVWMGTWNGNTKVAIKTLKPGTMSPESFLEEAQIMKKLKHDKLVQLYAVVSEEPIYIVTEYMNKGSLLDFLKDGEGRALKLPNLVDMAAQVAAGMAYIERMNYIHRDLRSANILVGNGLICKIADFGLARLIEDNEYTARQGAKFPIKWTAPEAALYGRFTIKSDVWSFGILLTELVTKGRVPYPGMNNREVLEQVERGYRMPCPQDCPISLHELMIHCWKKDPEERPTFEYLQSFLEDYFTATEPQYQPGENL
Experimental: (§3) Assays using the Kinase Selectivity TK-2 profiling systems and ADP-Glo Kinase Assay (both from Promega) were performed to determine the inhibition of the non-receptor tyrosine kinases. The protocol was previously designed and described by our group in reports. The experiments were performed at least four times. The data are expressed as the percentage of the inhibition activity of tyrosine kinase after treatment with the tested derivatives.

[6] = target: T2, ABL1 (Homo sapiens, UniProt P00519); assay: as above; format: biochemical; conditions: read-out: Inhibitory Effect of the Tyrosine Kinase Activity, ABL1
T2 construct: purchased Promega
T2 sequence (P00519 whole entry): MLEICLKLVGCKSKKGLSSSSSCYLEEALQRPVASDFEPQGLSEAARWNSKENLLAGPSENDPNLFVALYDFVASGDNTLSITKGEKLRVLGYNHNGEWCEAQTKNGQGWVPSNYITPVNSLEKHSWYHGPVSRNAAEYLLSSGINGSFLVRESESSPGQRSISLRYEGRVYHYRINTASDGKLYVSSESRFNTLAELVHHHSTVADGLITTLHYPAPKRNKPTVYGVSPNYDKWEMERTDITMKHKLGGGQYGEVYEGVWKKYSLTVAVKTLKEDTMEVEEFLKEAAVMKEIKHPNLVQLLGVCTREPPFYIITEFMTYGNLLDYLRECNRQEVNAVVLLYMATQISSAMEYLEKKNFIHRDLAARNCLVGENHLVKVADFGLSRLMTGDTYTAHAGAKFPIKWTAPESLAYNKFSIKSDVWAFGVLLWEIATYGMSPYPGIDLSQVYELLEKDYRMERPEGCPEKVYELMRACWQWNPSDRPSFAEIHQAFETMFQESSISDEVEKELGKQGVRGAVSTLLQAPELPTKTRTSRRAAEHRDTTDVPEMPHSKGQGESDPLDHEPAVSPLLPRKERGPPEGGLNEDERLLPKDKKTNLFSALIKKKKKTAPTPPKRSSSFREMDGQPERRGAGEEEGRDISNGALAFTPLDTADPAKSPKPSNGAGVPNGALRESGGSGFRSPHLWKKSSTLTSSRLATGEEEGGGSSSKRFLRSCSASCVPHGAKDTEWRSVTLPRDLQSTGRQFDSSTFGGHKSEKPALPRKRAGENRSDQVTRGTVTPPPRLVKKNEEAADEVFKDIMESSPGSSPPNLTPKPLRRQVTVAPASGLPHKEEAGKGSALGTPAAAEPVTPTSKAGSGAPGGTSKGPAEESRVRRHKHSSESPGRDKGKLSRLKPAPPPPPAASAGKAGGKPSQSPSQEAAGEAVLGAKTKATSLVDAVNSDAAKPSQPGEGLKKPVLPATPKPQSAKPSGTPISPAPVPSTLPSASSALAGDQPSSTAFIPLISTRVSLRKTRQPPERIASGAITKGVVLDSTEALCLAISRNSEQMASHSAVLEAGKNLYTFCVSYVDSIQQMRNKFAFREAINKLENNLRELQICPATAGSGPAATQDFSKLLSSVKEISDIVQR
Experimental: as §3

[7] = target: T3, BRK (Homo sapiens, UniProt Q13882); assay: as above; format: biochemical; conditions: read-out: Inhibitory Effect of the Tyrosine Kinase Activity, BRK
T3 construct: purchased Promega
T3 sequence (Q13882 whole entry): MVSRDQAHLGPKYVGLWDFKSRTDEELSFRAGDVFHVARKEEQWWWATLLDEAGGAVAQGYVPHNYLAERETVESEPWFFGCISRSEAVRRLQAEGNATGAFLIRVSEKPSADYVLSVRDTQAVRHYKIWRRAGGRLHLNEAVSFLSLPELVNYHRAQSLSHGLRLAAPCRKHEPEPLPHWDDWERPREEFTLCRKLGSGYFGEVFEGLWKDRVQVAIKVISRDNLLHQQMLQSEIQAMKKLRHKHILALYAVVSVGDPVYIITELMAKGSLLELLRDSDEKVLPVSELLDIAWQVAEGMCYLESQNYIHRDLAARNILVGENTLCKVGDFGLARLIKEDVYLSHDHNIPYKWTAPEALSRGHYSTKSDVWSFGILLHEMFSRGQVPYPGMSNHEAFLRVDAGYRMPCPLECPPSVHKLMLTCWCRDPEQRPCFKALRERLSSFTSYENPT
Experimental: as §3

[8] = target: T4, Src (Homo sapiens, UniProt P12931); assay: as above; format: biochemical; conditions: read-out: Inhibitory Effect of the Tyrosine Kinase Activity, Src
T4 construct: purchased Promega
T4 sequence (P12931 whole entry): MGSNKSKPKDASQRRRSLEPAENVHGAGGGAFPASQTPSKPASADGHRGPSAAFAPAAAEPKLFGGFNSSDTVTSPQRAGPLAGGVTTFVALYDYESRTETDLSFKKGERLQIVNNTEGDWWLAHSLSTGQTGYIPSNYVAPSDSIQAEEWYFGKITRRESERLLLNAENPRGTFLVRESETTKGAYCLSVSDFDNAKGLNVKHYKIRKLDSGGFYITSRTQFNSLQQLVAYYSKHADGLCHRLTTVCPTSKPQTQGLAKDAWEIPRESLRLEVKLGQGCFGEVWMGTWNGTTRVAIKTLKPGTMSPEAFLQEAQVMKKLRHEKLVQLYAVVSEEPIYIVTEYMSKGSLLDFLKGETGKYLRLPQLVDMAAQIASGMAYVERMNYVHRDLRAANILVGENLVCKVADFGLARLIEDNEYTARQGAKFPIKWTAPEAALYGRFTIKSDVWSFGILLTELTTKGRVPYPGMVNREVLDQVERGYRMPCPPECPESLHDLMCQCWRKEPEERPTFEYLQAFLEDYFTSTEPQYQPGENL
Experimental: as §3

[9] = target: T5, Lyn B (Homo sapiens, UniProt P07948); assay: as above; format: biochemical; conditions: read-out: Inhibitory Effect of the Tyrosine Kinase Activity, Lyn B
T5 construct: purchased Promega
T5 sequence (P07948 1-491 isoform P07948-2): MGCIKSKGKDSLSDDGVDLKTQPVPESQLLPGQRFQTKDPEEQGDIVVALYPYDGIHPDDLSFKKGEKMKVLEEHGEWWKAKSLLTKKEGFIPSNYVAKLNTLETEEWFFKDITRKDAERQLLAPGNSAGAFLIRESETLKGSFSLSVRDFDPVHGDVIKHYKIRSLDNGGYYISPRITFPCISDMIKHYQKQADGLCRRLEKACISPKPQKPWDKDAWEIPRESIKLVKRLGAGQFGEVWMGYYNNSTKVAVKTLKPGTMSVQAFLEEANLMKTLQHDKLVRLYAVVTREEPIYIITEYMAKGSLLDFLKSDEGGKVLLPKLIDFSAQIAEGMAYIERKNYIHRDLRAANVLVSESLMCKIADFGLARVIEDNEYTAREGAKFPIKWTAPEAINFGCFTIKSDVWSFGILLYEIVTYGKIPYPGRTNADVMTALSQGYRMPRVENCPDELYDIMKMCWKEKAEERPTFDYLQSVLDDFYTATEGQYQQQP
Experimental: as §3

[10] = target: T6, Lck (Homo sapiens, UniProt P06239); assay: as above; format: biochemical; conditions: read-out: Inhibitory Effect of the Tyrosine Kinase Activity, Lck
T6 construct: purchased Promega
T6 sequence (P06239 whole entry): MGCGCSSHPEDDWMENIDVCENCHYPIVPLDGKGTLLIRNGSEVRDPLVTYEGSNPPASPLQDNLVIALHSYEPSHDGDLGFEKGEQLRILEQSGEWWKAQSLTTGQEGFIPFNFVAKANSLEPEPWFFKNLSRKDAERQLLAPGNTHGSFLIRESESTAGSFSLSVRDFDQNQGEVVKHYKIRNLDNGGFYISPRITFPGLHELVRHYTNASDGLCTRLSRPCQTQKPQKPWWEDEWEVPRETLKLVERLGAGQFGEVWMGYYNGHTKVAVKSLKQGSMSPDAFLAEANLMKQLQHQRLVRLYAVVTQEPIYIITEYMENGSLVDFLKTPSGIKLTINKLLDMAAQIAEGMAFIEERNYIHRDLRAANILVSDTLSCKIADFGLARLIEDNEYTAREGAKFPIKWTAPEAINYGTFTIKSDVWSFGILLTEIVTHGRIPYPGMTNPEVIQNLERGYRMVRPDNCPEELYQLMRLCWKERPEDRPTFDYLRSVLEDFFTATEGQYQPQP
Experimental: as §3

[11] = target: T7, CSK (Homo sapiens, UniProt P41240); assay: as above; format: biochemical; conditions: read-out: Inhibitory Effect of the Tyrosine Kinase Activity, CSK
T7 construct: purchased Promega
Experimental: as §3

[12] = target: T8, BTK (Homo sapiens, UniProt Q06187); assay: as above; format: biochemical; conditions: read-out: Inhibitory Effect of the Tyrosine Kinase Activity, BTK
T8 construct: purchased Promega
T8 sequence (Q06187 whole entry): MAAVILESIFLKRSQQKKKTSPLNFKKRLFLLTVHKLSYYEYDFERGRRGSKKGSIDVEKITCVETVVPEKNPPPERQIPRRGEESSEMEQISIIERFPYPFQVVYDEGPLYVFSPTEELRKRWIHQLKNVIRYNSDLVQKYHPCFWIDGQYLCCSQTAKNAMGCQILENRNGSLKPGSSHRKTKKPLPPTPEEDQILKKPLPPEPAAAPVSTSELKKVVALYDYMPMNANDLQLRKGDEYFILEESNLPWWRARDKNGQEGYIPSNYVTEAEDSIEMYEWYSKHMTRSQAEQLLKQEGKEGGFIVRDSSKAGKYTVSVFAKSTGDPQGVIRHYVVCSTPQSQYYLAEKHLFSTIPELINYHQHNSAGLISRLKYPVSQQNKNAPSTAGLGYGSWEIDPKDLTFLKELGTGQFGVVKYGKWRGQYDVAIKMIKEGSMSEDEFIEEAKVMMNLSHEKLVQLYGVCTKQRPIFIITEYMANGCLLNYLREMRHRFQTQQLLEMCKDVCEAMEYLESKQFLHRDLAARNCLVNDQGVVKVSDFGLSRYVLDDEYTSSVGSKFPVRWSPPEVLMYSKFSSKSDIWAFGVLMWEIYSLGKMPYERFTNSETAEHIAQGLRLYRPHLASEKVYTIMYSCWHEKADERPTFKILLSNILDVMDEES
Experimental: as §3

[13] = test system: U-251 cells; assay: Immunoblotting with densitometry, U-251; format: cell-based, human; conditions: for PARP/Reference 89 kDa, densitometric intensity ratio / caspase-9/Reference 37-35 kDa, densitometric intensity ratio: control 0.330; for BID/Reference 22 kDa, densitometric intensity ratio / Cathepsin b/Reference 44 kDa, densitometric intensity ratio / HIF-1α/Reference 120 kDa, densitometric intensity ratio / PARP/Reference 116 kDa, densitometric intensity ratio / caspase-9/Reference 47 kDa, densitometric intensity ratio / cdc2/Reference 34 kDa, densitometric intensity ratio / cyclin E1/Reference 48 kDa, densitometric intensity ratio / p21/Reference 21 kDa, densitometric intensity ratio / p53/Reference 53 kDa, densitometric intensity ratio: control 1.000; for Cathepsin b/Reference 27 kDa, densitometric intensity ratio: control 2.837; for Cathepsin b/Reference 22 kDa, densitometric intensity ratio: control […]
Experimental: The K562 and U-251 cells were seeded in 3 cm Petri dishes (Nunc) at a density of 500,000 cells per well and incubated overnight. […] Next, the cell pellets were resuspended in an RIPA buffer containing a Halt Protease Inhibitor Cocktail and a Halt Phosphatase Inhibitor Cocktail along with 0.5 M EDTA (all from Thermo Scientific, Waltham, MA, USA) and lysed on ice for 20 min. Then, the obtained lysates were sonicated and centrifuged at 10,000 rpm for 10 min at 4 °C. The supernatants were collected for further analysis. The protein concentration was measured using a Micro BCA™ Protein Assay Kit (Thermo Scientific) according to the manufacturer’s instructions. Equal amounts of the proteins (16 μg) were electrophoresed on SDS-Page gels and transferred onto nitrocellulose membranes. The membranes were blocked in 5% non-fat milk prepared in TPBS (PBS containing 0.1% Tween-20) for 1 h. After blocking, the membranes were incubated with the specific primary antibodies (all from Cell Signaling) at a 1:1000 dilution—cyclin E, cdc2, PARP, AIF, BID, p53, p21^Waf1/Cip1, HIF-1α, cathepsin B and caspase-9—and at a 1:2000 dilution for the reference proteins—vinculin, β-actin and GAPDH—overnight at 4 °C. The next day, the membranes were washed in TPBS and incubated with horseradish peroxidase (HRP)-conjugated secondary antibodies for 1 h at room temperature. Lastly, the membranes were washed in TPBS and incubated with a SuperSignal™ West Pico Chemiluminescent Substrate (Thermo Scientific). The chemiluminescence signals were captured using a ChemiDoc™ XRS + System (Biorad). The experiments were performed at least four to five times. The densitometric analysis was conducted using ImageJ software (Wayne Rasband, National Institutes of Health, Bethesda, MD, USA).
The band intensity of tested proteins (p53, cyclin E1, cdc2, p21, HIF-1α, cathepsin b, PARP, caspase-9, BID, AIF) were analyzed by densitometry readings/intensity ratio, using ImageJ software (NIH) and were normalized to the corresponding reference proteins (GAPDH, vinculin or β-actin) value.
The densitometric readings/intensity ratio data from four/five independent experiments (compared to control): […]
p53/ Refer- p21/ Refer- cdc2/ Refer- Cyclin E1/ HIF-1α/ Cathepsin b/Reference ence ence ence Reference Reference
PARP/Reference BID/ Reference Caspase-9/Reference […]

inhibition at 0.5 µM [5]: 0%
inhibition at 0.5 µM [6]: 0%
inhibition at 0.5 µM [7]: 9.33%
inhibition at 0.5 µM [8]: 26.3%
inhibition at 0.5 µM [9]: 38%
inhibition at 0.5 µM [10]: 9.93%
inhibition at 0.5 µM [11]: 34.2%
inhibition at 0.5 µM [12]: 40.2%
Structure (SMILES): COc1ccccc1/C=C/c1nc(OS(=O)(=O)c2cc3c(cc2Br)OCO3)c2ccccc2n1 [BS2, 2-((E)-2-(2-methoxyphenyl)ethenyl)quinazolin-4-yl 6-bromo-1,3-benzodioxole-5-sulfonate]
IC50 [1]: 246 ± 55 nM
Selectivity index, K562 [1]: 63.70
IC50 [2]: 1310 ± 290 nM
Selectivity index, HCT 116 p53 −/− [2]: 11.94
IC50 [3]: > 25000 nM
Selectivity index, A549 [3]: 1.00
IC50 [4]: 2900 ± 622 nM
Selectivity index, PANC-1 [4]: 5.39
PARP/Reference 89 kDa, densitometric intensity ratio ([13]; U-251, 4µM, 24 h): 0.763
caspase-9/Reference 37-35 kDa, densitometric intensity ratio ([13]; U-251, 4µM, 24 h): 1.071
BID/Reference 22 kDa, densitometric intensity ratio ([13]; U-251, 4µM, 24 h): 0.701
Cathepsin b/Reference 44 kDa, densitometric intensity ratio ([13]; U-251, 4µM, 24 h): 1.805
HIF-1α/Reference 120 kDa, densitometric intensity ratio ([13]; U-251, 4µM, 24 h): 0.587
PARP/Reference 116 kDa, densitometric intensity ratio ([13]; U-251, 4µM, 24 h): 0.953
caspase-9/Reference 47 kDa, densitometric intensity ratio ([13]; U-251, 4µM, 24 h): 1.007
cdc2/Reference 34 kDa, densitometric intensity ratio ([13]; U-251, 4µM, 24 h): 2.272
cyclin E1/Reference 48 kDa, densitometric intensity ratio ([13]; U-251, 4µM, 24 h): 0.465
p21/Reference 21 kDa, densitometric intensity ratio ([13]; U-251, 4µM, 24 h): 2.205
p53/Reference 53 kDa, densitometric intensity ratio ([13]; U-251, 4µM, 24 h): 1.698
Cathepsin b/Reference 27 kDa, densitometric intensity ratio ([13]; U-251, 4µM, 24 h): 2.625
Cathepsin b/Reference 22 kDa, densitometric intensity ratio ([13]; U-251, 4µM, 24 h): 2.893
PARP/Reference 89 kDa, densitometric intensity ratio ([13]; U-251, 6µM, 24 h): 0.698
caspase-9/Reference 37-35 kDa, densitometric intensity ratio ([13]; U-251, 6µM, 24 h): 1.188
BID/Reference 22 kDa, densitometric intensity ratio ([13]; U-251, 6µM, 24 h): 1.227
Cathepsin b/Reference 44 kDa, densitometric intensity ratio ([13]; U-251, 6µM, 24 h): 2.641
HIF-1α/Reference 120 kDa, densitometric intensity ratio ([13]; U-251, 6µM, 24 h): 0.661
PARP/Reference 116 kDa, densitometric intensity ratio ([13]; U-251, 6µM, 24 h): 0.940
caspase-9/Reference 47 kDa, densitometric intensity ratio ([13]; U-251, 6µM, 24 h): 1.035
cdc2/Reference 34 kDa, densitometric intensity ratio ([13]; U-251, 6µM, 24 h): 2.282
cyclin E1/Reference 48 kDa, densitometric intensity ratio ([13]; U-251, 6µM, 24 h): 0.392
p21/Reference 21 kDa, densitometric intensity ratio ([13]; U-251, 6µM, 24 h): 2.783
p53/Reference 53 kDa, densitometric intensity ratio ([13]; U-251, 6µM, 24 h): 1.448
Cathepsin b/Reference 27 kDa, densitometric intensity ratio ([13]; U-251, 6µM, 24 h): 3.172
Cathepsin b/Reference 22 kDa, densitometric intensity ratio ([13]; U-251, 6µM, 24 h): 3.717

inhibition at 0.5 µM [5]: 3.51%
inhibition at 0.5 µM [6]: 0%
inhibition at 0.5 µM [7]: 35.5%
inhibition at 0.5 µM [8]: 0%
inhibition at 0.5 µM [9]: 0%
inhibition at 0.5 µM [10]: 19.5%
inhibition at 0.5 µM [11]: 28.3%
inhibition at 0.5 µM [12]: 26.9%
Structure (SMILES): COc1ccccc1/C=C/c1nc(OS(=O)(=O)c2ccc(C)cc2)c2ccccc2n1 [BS4, 2-((E)-2-(2-methoxyphenyl)ethenyl)quinazolin-4-yl 4-methylbenzenesulfonate]
IC50 [1]: 173 ± 31 nM
Selectivity index, K562 [1]: 144.51
IC50 [2]: 3720 ± 487 nM
Selectivity index, HCT 116 p53 −/− [2]: 6.71
IC50 [3]: 11300 ± 1760 nM
Selectivity index, A549 [3]: 2.20
IC50 [4]: 235 ± 42 nM
Selectivity index, PANC-1 [4]: 106.38
Cleavage product of caspase-9 (Western blot) ([13]; U-251, 6 μM, 24 h): approximately three-fold increase
HIF-1α protein expression (Western blot) ([13]; U-251, 24 h): significant decrease
p21 protein expression (Western blot) ([13]; U-251, 24 h): more than two-fold increase
p53 protein levels (Western blot) ([13]; U-251, 24 h): statistically significant increase
